According to patent publication US20260249027A1, “METERED DOSE INHALERS AND HIGH-DOSE SUSPENSIONS” (Kindeva Drug Delivery L.P., priority 2023, published 2026):

Assays:
[1] = Through life dose consistency of mometasone furoate pMDI suspensions (USP <601>, apparatus A); format: physicochemical
Procedure: (§1) In the following examples, dose consistency was determined by in vitro measurement of single actuation dose content at start, middle and end of pMDI unit life in line with U.S. Pharmacopeia (USP)<601>, using a flow rate of 28.3 L/min and apparatus A. Aerodynamic particle size distribution of the pMDI suspension aerosols was measured at start of unit life in line with U.S. Pharmacopeia (USP)<601> using a Next Generation impactor without pre-separator (apparatus 6) and a flow rate of 30 L/min.
(§2) Suspensions of micronized mometasone furoate in HFA-152a or HFO-1234ze(E) were prepared. A first set of suspensions included no ethanol. A second set of suspensions included 2% ethanol by weight. Each suspension included an amount of mometasone furoate to provide a nominal delivered dose (ex-valve) of 0.5 mg/actuation (10.0 mg/mL) or 1.0 mg/actuation (20.0 mg/mL). Two further suspensions including no ethanol were prepared which included an amount of mometasone furoate to provide a nominal delivered dose (ex-valve) of 2.0 mg/actuation (40.0 mg/mL).
(§3) In total, ten suspension pMDI formulations were prepared in triplicate with sufficient fill weight to provide 60 actuations. Each suspension was filled into Kindeva FEP coated canisters, crimped with a Kindeva 50-μL valve. Each pMDI unit was sonicated for at least 10 minutes to disperse the suspended drug and tested with a Kindeva actuator having an exit orifice diameter (EOD) of 0.4 mm.
The through-life (TL) dose consistency of each pMDI unit was determined by measuring the mean ex-actuator delivered dose in micrograms of mometasone furoate (N=3) at the start of life (SoL), middle of life (MOL) and end of life (EoL) of the unit.

[2] = Aerodynamic particle size measurement of mometasone furoate pMDI suspensions (Next Generation impactor); format: physicochemical
Text: In general, aerosols with mass median aerodynamic diameters (MMAD) of at least 1 μm but less than 5 μm in size are suitable for effective deep lung deposition for therapeutic effect. Herein, fine particle fraction (FPF) is defined as the percentage of the ex-actuator delivered API having a MMAD of less than 5 μm when tested in vitro. Herein, “ex-actuator” delivered dose is used to describe the amount of API delivered past the actuator of a pMDI. Therefore, an aerosol with a high FPF is typically suitable for deep lung deposition.
as §1, §2
as §3, with “0.4 mm or 0.25” for “0.4”
The mass median aerodynamic diameter (MMAD) and fine particle fraction (FPF) of each pMDI unit were measured by Next Generation cascade impaction (N=3) for each pMDI suspension.

[3] = nominal ex-valve 0.5 mg/act, HFA-152a
[4] = nominal ex-valve 0.5 mg/act, HFA-152a/2% EtOH (w/w)
[5] = nominal ex-valve 0.5 mg/act, HFO-1234ze(E)
[6] = nominal ex-valve 0.5 mg/act, HFO-1234ze(E)/2% EtOH (w/w)
[7] = nominal ex-valve 1.0 mg/act, HFA-152a
[8] = nominal ex-valve 1.0 mg/act, HFA-152a/2% EtOH (w/w)
[9] = nominal ex-valve 1.0 mg/act, HFO-1234ze(E)
[10] = nominal ex-valve 1.0 mg/act, HFO-1234ze(E)/2% EtOH (w/w)
[11] = nominal ex-valve 2.0 mg/act, HFA-152a
[12] = nominal ex-valve 2.0 mg/act, HFO-1234ze(E)
[13] = nominal ex-valve 0.5 mg/act, HFA-152a/2% EtOH (w/w), actuator exit orifice diameter 0.4 mm
[14] = nominal ex-valve 0.5 mg/act, HFA-152a, actuator exit orifice diameter 0.4 mm
[15] = nominal ex-valve 0.5 mg/act, HFO-1234ze(E)/2% EtOH (w/w), actuator exit orifice diameter 0.25 mm
[16] = nominal ex-valve 0.5 mg/act, HFO-1234ze(E)/2% EtOH (w/w), actuator exit orifice diameter 0.4 mm
[17] = nominal ex-valve 0.5 mg/act, HFO-1234ze(E), actuator exit orifice diameter 0.25 mm
[18] = nominal ex-valve 0.5 mg/act, HFO-1234ze(E), actuator exit orifice diameter 0.4 mm
[19] = nominal ex-valve 1.0 mg/act, HFA-152a/2% EtOH (w/w), actuator exit orifice diameter 0.25 mm
[20] = nominal ex-valve 1.0 mg/act, HFA-152a/2% EtOH (w/w), actuator exit orifice diameter 0.4 mm
[21] = nominal ex-valve 1.0 mg/act, HFA-152a, actuator exit orifice diameter 0.25 mm
[22] = nominal ex-valve 1.0 mg/act, HFA-152a, actuator exit orifice diameter 0.4 mm
[23] = nominal ex-valve 1.0 mg/act, HFO-1234ze(E)/2% EtOH (w/w), actuator exit orifice diameter 0.25 mm
[24] = nominal ex-valve 1.0 mg/act, HFO-1234ze(E)/2% EtOH (w/w), actuator exit orifice diameter 0.4 mm
[25] = nominal ex-valve 1.0 mg/act, HFO-1234ze(E), actuator exit orifice diameter 0.25 mm
[26] = nominal ex-valve 1.0 mg/act, HFO-1234ze(E), actuator exit orifice diameter 0.4 mm
[27] = nominal ex-valve 2.0 mg/act, HFA-152a, actuator exit orifice diameter 0.4 mm
[28] = nominal ex-valve 2.0 mg/act, HFO-1234ze(E), actuator exit orifice diameter 0.4 mm

effect of addition of ethanol on through unit life ex-actuator delivered dose consistency ([1]; 2% ethanol by weight, HFA-152a or HFO-1234ze(E)): did not always substantially improve
through unit life ex-actuator delivered dose consistency ([1]; HFA-152a or HFO-1234ze(E) with and without 2% ethanol by weight): relatively consistent
EoL mean delivered dose [1, 3]: 433.2 μg/act
MoL mean delivered dose [1, 3]: 433.8 μg/act
SoL mean delivered dose [1, 3]: 457.7 μg/act
TL mean delivered dose [1, 3]: 441.6 μg/act
EoL mean delivered dose [1, 4]: 450.9 μg/act
MoL mean delivered dose [1, 4]: 427.3 μg/act
SoL mean delivered dose [1, 4]: 408.9 μg/act
TL mean delivered dose [1, 4]: 429.1 μg/act
EoL mean delivered dose [1, 5]: 430.8 μg/act
MoL mean delivered dose [1, 5]: 434.7 μg/act
SoL mean delivered dose [1, 5]: 457.5 μg/act
TL mean delivered dose [1, 5]: 441.0 μg/act
EoL mean delivered dose [1, 6]: 465.7 μg/act
MoL mean delivered dose [1, 6]: 453.1 μg/act
SoL mean delivered dose [1, 6]: 433.9 μg/act
TL mean delivered dose [1, 6]: 450.9 μg/act
EoL mean delivered dose [1, 7]: 705.6 μg/act
MoL mean delivered dose [1, 7]: 1018.3 μg/act
SoL mean delivered dose [1, 7]: 1087.9 μg/act
TL mean delivered dose [1, 7]: 937.3 μg/act
EoL mean delivered dose [1, 8]: 759.7 μg/act
MoL mean delivered dose [1, 8]: 936.3 μg/act
SoL mean delivered dose [1, 8]: 906.5 μg/act
TL mean delivered dose [1, 8]: 867.5 μg/act
EoL mean delivered dose [1, 9]: 934.4 μg/act
MoL mean delivered dose [1, 9]: 931.9 μg/act
SoL mean delivered dose [1, 9]: 752.4 μg/act
TL mean delivered dose [1, 9]: 855.3 μg/act
EoL mean delivered dose [1, 10]: 848.1 μg/act
MoL mean delivered dose [1, 10]: 1003.4 μg/act
SoL mean delivered dose [1, 10]: 852.6 μg/act
TL mean delivered dose [1, 10]: 901.4 μg/act
EoL mean delivered dose [1, 11]: 1613.8 μg/act
MoL mean delivered dose [1, 11]: 1771.5 μg/act
SoL mean delivered dose [1, 11]: 1815.1 μg/act
TL mean delivered dose [1, 11]: 1733.4 μg/act
EoL mean delivered dose [1, 12]: 1837.0 μg/act
MoL mean delivered dose [1, 12]: 1725.9 μg/act
SoL mean delivered dose [1, 12]: 1755.0 μg/act
TL mean delivered dose [1, 12]: 1772.6 μg/act
FPF with actuator EOD 0.25 mm compared with EOD 0.4 mm ([2]; 0.5 and 1.0 mg/actuation in HFO-1234ze(E), 1.0 mg/actuation in HFA-152a): consistently greater FPFs
MMAD values of aerosols, suitability ([2]; HFA-152a or HFO-1234ze(E), with and without ethanol, in-vitro): in an appropriate respirable range
FPF without ethanol compared with corresponding suspensions with 2% ethanol by weight ([2]; HFA-152a or HFO-1234ze(E), all nominal doses): generally produced greater FPFs
Mean FPF [2, 13]: 34.0%
Mean MMAD [2, 13]: 3.55 μm
Mean FPF [2, 14]: 37.5%
Mean MMAD [2, 14]: 3.56 μm
Mean FPF [2, 15]: 55.3%
Mean MMAD [2, 15]: 3.70 μm
Mean FPF [2, 16]: 39.0%
Mean MMAD [2, 16]: 3.70 μm
Mean FPF [2, 17]: 66.6%
Mean MMAD [2, 17]: 3.41 μm
Mean FPF [2, 18]: 49.8%
Mean MMAD [2, 18]: 3.36 μm
Mean FPF [2, 19]: 45.3%
Mean MMAD [2, 19]: 3.91 μm
Mean FPF [2, 20]: 31.1%
Mean MMAD [2, 20]: 3.90 μm
Mean FPF [2, 21]: 49.1%
Mean MMAD [2, 21]: 3.75 μm
Mean FPF [2, 22]: 29.4%
Mean MMAD [2, 22]: 4.13 μm
Mean FPF [2, 23]: 52.5%
Mean MMAD [2, 23]: 3.84 μm
Mean FPF [2, 24]: 31.8%
Mean MMAD [2, 24]: 4.01 μm
Mean FPF [2, 25]: 58.8%
Mean MMAD [2, 25]: 3.61 μm
Mean FPF [2, 26]: 39.5%
Mean MMAD [2, 26]: 3.69 μm
Mean FPF [2, 27]: 19.5%
Mean MMAD [2, 27]: 5.09 μm
Mean FPF [2, 28]: 22.5%
Mean MMAD [2, 28]: 4.87 μm
Compound: C[C@@H]1C[C@H]2[C@@H]3CCC4=CC(=O)C=C[C@]4(C)[C@@]3(Cl)[C@@H](O)C[C@]2(C)[C@@]1(OC(=O)c1ccco1)C(=O)CCl [mometasone furoate]
FPF and MMAD in HFO-1234ze(E) compared with corresponding suspensions in HFA-152a ([2]; with or without ethanol): consistently produced greater FPFs and generally smaller MMADs
